From patent US8716478B2, “Boron-containing small molecules” (Anacor Pharmaceuticals, Inc., priority 2010, dated 2014)

Legend:
[1] = system: TNF-α in peripheral blood mononuclear cells (PBMCs); test: TNF-α inhibition in LPS-stimulated peripheral blood mononuclear cells; format: cell-based; conditions: PBMC; PBMCs, LPS 1 μg/mL for 24 h; read-out: Proinflammatory TNF-α IC50
Description: Peripheral blood mononuclear cells (PBMCs) pooled from 10-20 donors were obtained from a local blood bank, ficoll gradient purified, and stored frozen in liquid nitrogen. Cells were thawed and seeded into 96-well plates at 5×10^5 cells/well in RPMI 1640 with 10% heat-inactivated fetal calf serum (MediaTech, Inc, Hearndon, Va., USA), Test articles were evaluated at the indicated concentrations in 150 μL media containing <2% DMSO, final, with stimulant and PBMCs. Cells were stimulated with lipopolysaccharide (LPS, phenol-extract from E. coli, Sigma-Aldrich, St. Louis, Mo.) at 1 μg/mL. Stimulation was with LPS for 24 h to measure TNF-α. Cytokines in supernatants were analyzed with a FACSArray flow cytometer (BD Biosciences, San Jose, Calif., USA) using the BD Cytometric Bead Array (CBA) Flex Set (BD Biosciences). IC50 values were calculated using the four parameter logistic equation.

[2] = system: human PDE4 enzyme; test: Phosphodiesterase 4 (PDE4) inhibition, semi-purified enzyme from human U937 cells; format: biochemical; conditions: 1 μM cAMP, 20 minutes at 25° C.; read-out: PDE4 IC50
[3] = Pharmacokinetics and oral bioavailability after IV and PO dosing; format: in vivo, female CD-1 mice; conditions: plasma; for bioavailability / AUC: female, CD-1, mouse; for bioavailability: po; for AUC: 10 mg/kg oral suspension dose; for clearance: mouse, 5 mg/kg, female CD-1 mice, intravenous
Description: The objective of this study was to evaluate the pharmacokinetics and oral bioavailability of PDE4 inhibitors following intravenous (IV) administration and oral (PO) doses in female CD-1 mice.
After dosing, blood samples were collected through 24 h, twice from each animal at specific times (3 mice/time point), into microcentrifuge tubes containing K2EDTA (anticoagulant), stored on wet ice and processed for plasma. The plasma samples were analyzed for concentrations of parent compound by LC/MS/MS using an internal standard/peak area method. Pharmacokinetic analysis of the mean plasma concentration-time profiles following IV and PO administration was performed.
[…] Dosing solutions for intravenous administration were prepared in 55% PEG300/25% PG/20% water. Oral dosing used a suspension prepared in 1% CMC in water with 0.1% Tween 80.
After dosing, blood samples were collected through 24 h, twice from each animal via retro-orbital bleed (˜0.1 mL, 1st time point) or cardiac puncture (˜0.6 mL, 2nd time point) at specific times (3 mice/time point), into microcentrifuge tubes containing K2EDTA (anticoagulant) and stored on wet ice prior to processing.
Plasma was prepared by centrifugation of blood samples for 6 min at approximately 2000×g or 6000 rpm at 4° C. All processed plasma samples (˜50 μL and 300 μL) were transferred to analysis tubes, placed on dry ice immediately and later stored at −80° C. until analysis for concentrations of experimental compound by LC/MS/MS.
Mouse IV clearance, Mouse Oral AUC and Oral Bioavailability are provided below. 6-(1-Hydroxy-1,3-dihydrobenzo[c][1,2]oxaborol-5-yloxy)-2-(2-isopropoxyethoxy)nicotinonitrile (D140) and 6-(1-hydroxy-1,3-dihydrobenzo[c][1,2]oxaborol-5-yloxy)-2-(4-oxopentyloxy)nicotinonitrile (D141) are disclosed in U.S. patent application Ser. No. 12/399,015, filed Mar. 5, 2009.

[4] = system: TNF-α; test: In vivo TNF-α release in LPS treated mice; design: species or system Swiss Webster mice
Description: In vivo TNF-α release was measured in Swiss Webster mice, 10/group. Animals were dosed via oral gavage with drug 1% CMC suspension. Thirty minutes later LPS, 1.5 mg/kg was administered by intraperitoneal injection. Ninety minutes later animals were sacrificed, blood was collected by exsangination and serum prepared for analysis. TNF-α concentration was assessed by ELISA, non-drug treated animals had TNF-α levels 1000-3000 pg/mL. 6-(1-Hydroxy-1,3-dihydrobenzo[c][1,2]oxaborol-5-yloxy)-2-(2-isopropoxyethoxy)nicotinonitrile (D140) and 6-(1-hydroxy-1,3-dihydrobenzo[c][1,2]oxaborol-5-yloxy)-2-(4-oxopentyloxy)nicotinonitrile (D141) are disclosed in U.S. patent application Ser. No. 12/399,015, filed Mar. 5, 2009.

Compound	IC50 [1] [nM]	IC50 [2] [nM]	bioavailability [3] [%]	AUC [3] [ng·h/mL]	clearance [3] [mL/min/kg]	other results
CC(=O)CCCOc1nc(Oc2cc(C)c3c(c2)COB3O)c(Cl)cc1C#N [Compound D246, 5-Chloro-6-(1-hydroxy-7-methyl-1,3-dihydrobenzo[c][1,2]oxaborol-5-yloxy)-2-(4-oxopentyloxy)nicotinonitrile]	11	1.3				
CC(C)OCCOc1nc(Oc2ccc3c(c2)COB3O)c(C#N)cc1C#N [Compound D243, 2-(1-Hydroxy-1,3-dihydrobenzo[c][1,2]oxaborol-5-yloxy)-6-(2-isopropoxyethoxy)pyridine-3,5-dicarbonitrile]	1.1	6.5	96	3900	50	
Cc1cc(Oc2nc(OCCOC(C)C)c(C#N)cc2Cl)cc2c1B(O)OC2 [Compound D245, 5-Chloro-6-(1-hydroxy-7-methyl-1,3-dihydrobenzo[c][1,2]oxaborol-5-yloxy)-2-(2-isopropoxyethoxy)nicotinonitrile]	26	2				
N#Cc1cc(Cl)c(Oc2ccc3c(c2)COB3O)nc1OCCOC1CC1 [Compound D239, 5-Chloro-2-(2-cyclopropoxyethoxy)-6-(1-hydroxy-1,3-dihydrobenzo[c][1,2]oxaborol-5-yloxy)nicotinonitrile]	0.65	1.3				
CC(C)OCCOc1nc(Oc2cc3c(cc2F)B(O)OC3)c(Cl)cc1C#N [Compound D249, 5-Chloro-6-(6-fluoro-1-hydroxy-1,3-dihydrobenzo[c][1,2]oxaborol-5-yloxy)-2-(2-isopropoxyethoxy)nicotinonitrile]	2.3		100	3300	59.1	
CC(C)OCCOc1nc(Oc2ccc3c(c2)COB3O)c(Cl)cc1C#N [Compound D230, 5-chloro-6-(1-hydroxy-1,3-dihydrobenzo[c][1,2]oxaborol-5-yloxy)-2-(2-isopropoxyethoxy)nicotinonitrile]	2.5	5.2	60	3000	36.7	% Inhibition of TNFa Blood Levels in LPS Treated Mice ([4]; Oral Dose 0.1 mg/kg): 39%; % Inhibition of TNFa Blood Levels in LPS Treated Mice ([4]; Oral Dose 0.3 mg/kg): 59%; % Inhibition of TNFa Blood Levels in LPS Treated Mice ([4]; Oral Dose 0.5 mg/kg): 55%; % Inhibition of TNFa Blood Levels in LPS Treated Mice ([4]; Oral Dose 1 mg/kg): 76%; % Inhibition of TNFa Blood Levels in LPS Treated Mice ([4]; Oral Dose 3 mg/kg): 80%; % Inhibition of TNFa Blood Levels in LPS Treated Mice ([4]; Oral Dose 5 mg/kg): 77%; % Inhibition of TNFa Blood Levels in LPS Treated Mice ([4]; Oral Dose 10 mg/kg): 77%
CC(C)OCCOc1nc(Oc2ccc3c(c2)COB3O)c(C(F)(F)F)cc1C#N [Compound D238, 6-(1-Hydroxy-1,3-dihydrobenzo[e][1,2]oxaborol-5-yloxy)-2-(2-isopropoxyethoxy)-5-(trifluoromethyl)nicotinonitrile]	1.1		65	11200	9.85	
CC(C)OCCOc1nc(Oc2ccc3c(c2)COB3O)c(C2CC2)cc1C#N [Compound D237, 5-cyclopropyl-6-(1-hydroxy-1,3-dihydrobenzo[c][1,2]oxaborol-5-yloxy)-2-(2-isopropoxyethoxy)nicotinonitrile]	1.5		100	6920	26.8	
CC(=O)CCCOc1nc(Oc2cc3c(cc2F)B(O)OC3)c(Cl)cc1C#N [Compound D250, 5-Chloro-6-(6-fluoro-1-hydroxy-1,3-dihydrobenzo[c][1,2]oxaborol-5-yloxy)-2-(4-oxopentyloxy)nicotinonitrile]	0.41		71	17000	7.83	
COCC(COc1nc(Oc2ccc3c(c2)COB3O)c(Cl)cc1C#N)OC (stereo not drawn) [Compound D232, 5-Chloro-2-(2,3-dimethoxypropoxy)-6-(1-hydroxy-1,3-dihydrobenzo[c][1,2]oxaborol-5-yloxy)nicotinonitrile]	98	23				
CC(C)OCCOc1nc(Oc2cc(F)c3c(c2)COB3O)cc(C(F)(F)F)c1C#N [Compound D254, 6-(7-fluoro-1-hydroxy-1,3-dihydrobenzo[c][1,2]oxaborol-5-yloxy)-2-(2-isopropoxyethoxy)-4-(trifluoromethyl)nicotinonitrile]	3.5		58	110000	1.05	
CC(=O)CCCOc1nc(Oc2ccc3c(c2)COB3O)c(C2CC2)cc1C#N [Compound D236, 5-cyclopropyl-6-(1-hydroxy-1,3-dihydrobenzo[c][1,2]oxaborol-5-yloxy)-2-(4-oxopentyloxy)nicotinonitrile]	0.34		100	5620	34.2	
[2H]C1([2H])OB(O)c2ccc(Oc3nc(OCCOC(C)C)c(C#N)cc3Cl)cc21 [Compound D251, 5-Chloro-6-(3,3-dideuterio-1-hydroxy-1,3-dihydrobenzo[c][1,2]oxaborol-5-yloxy)-2-(2-isopropoxyethoxy)nicotinonitrile]	2.3			6300	44.5	
CC(C)OCCOc1nc(Oc2ccc3c(c2)COB3O)cc(C(F)(F)F)c1C#N [Compound D241, 6-(1-hydroxy-1,3-dihydrobenzo[c][1,2]oxaborol-5-yloxy)-2-(2-isopropoxyethoxy)-4-(trifluoromethyl)nicotinonitrile]	2.9	1.1	100	14900	14.2	
CC(=O)CCCOc1nc(Oc2ccc3c(c2)COB3O)c(C#N)cc1Cl [Compound D253, 5-Chloro-2-(1-hydroxy-1,3-dihydrobenzo[c][1,2]oxaborol-5-yloxy)-6-(4-oxopentyloxy)nicotinonitrile]	0.57	0.25				
CC(=O)CCCOc1nc(Oc2cc(F)c3c(c2)COB3O)c(Cl)cc1C#N [Compound D248, 5-Chloro-6-(7-fluoro-1-hydroxy-1,3-dihydrobenzo[c][1,2]oxaborol-5-yloxy)-2-(4-oxopentyloxy)nicotinonitrile]	0.93	1.7	79	91000	1.83	
N#Cc1cc(Cl)c(Oc2ccc3c(c2)COB3O)nc1OCCOC(F)(F)F [Compound D235]	2.2			5840	20.2	
CC(=O)CCCOc1nc(Oc2ccc3c(c2)COB3O)cc(C(F)(F)F)c1C#N [Compound D242, 6-(1-Hydroxy-1,3-dihydrobenzo[c][1,2]oxaborol-5-yloxy)-2-(4-oxopentyloxy)-4-(trifluoromethyl)nicotinonitrile]	0.21	2.2	15	590	567	
CC(=O)CCCOc1nc(Oc2ccc3c(c2)COB3O)c(C#N)cc1C#N [Compound D244, 2-(1-Hydroxy-1,3-dihydrobenzo[c][1,2]oxaborol-5-yloxy)-6-(4-oxopentyloxy)pyridine-3,5-dicarbonitrile]	0.21		100	13600	23.3	
CC(C)OCCOc1nc(Oc2cc(F)c3c(c2)COB3O)c(Cl)cc1C#N [Compound D247, 5-Chloro-6-(7-fluoro-1-hydroxy-1,3-dihydrobenzo[c][1,2]oxaborol-5-yloxy)-2-(2-isopropoxyethoxy)nicotinonitrile]	2.9	19	100	21000	18.3	
